Results on ten compounds are retold here after patent publication US12534469B2 (CHILDREN'S HOSPITAL MEDICAL CENTER, priority 2020, dated 2026).

For one test, the target named is T1, IRAK1 (Homo sapiens, UniProt P51617).
T1 construct: purchased Reaction Biology (RBC HotSpot Kinase Assay)
The experiment in a line: RBC HotSpot Kinase Assay, IRAK1. The test is classed as biochemical. In short, it runs like this: (§1)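 Radiometric filter-binding (HotSpot) activity assay on isolated recombinant kinase, possibly truncated or catalytic domain only, in 20 mM Hepes pH 7.5, 10 mM MgCl2, 1 mM EGTA, 2 mM DTT, 1% DMSO. Compound preincubated 20 min with kinase and substrate, then ^33P-ATP added. Reaction 2 h at room temperature, read by P81 filter binding.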

For another test, the target named is T2, FLT3 (Homo sapiens, UniProt P36888).
T2 construct: purchased Reaction Biology (RBC HotSpot Kinase Assay)
T2 sequence (P36888 564-958 limits assumed): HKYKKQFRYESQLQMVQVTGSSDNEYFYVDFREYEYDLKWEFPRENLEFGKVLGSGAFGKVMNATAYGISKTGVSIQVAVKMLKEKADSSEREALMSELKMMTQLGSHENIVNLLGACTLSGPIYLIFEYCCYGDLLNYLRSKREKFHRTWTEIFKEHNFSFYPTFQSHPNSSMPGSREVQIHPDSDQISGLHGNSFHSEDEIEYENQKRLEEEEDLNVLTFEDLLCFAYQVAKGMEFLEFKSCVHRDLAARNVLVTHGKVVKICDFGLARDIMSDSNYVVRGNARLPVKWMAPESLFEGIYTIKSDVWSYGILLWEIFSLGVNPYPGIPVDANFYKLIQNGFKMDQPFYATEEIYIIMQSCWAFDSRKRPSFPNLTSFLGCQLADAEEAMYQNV
The experiment in a line: RBC HotSpot Kinase Assay, FLT3. The test is classed as biochemical. In short, it runs like this: as §1

The test system of a further test is MOLM14 D835Y cells. The test can be described thus: MOLM14 D835Y cell viability assay (Cell Titer Glo). The test is classed as cell-based. How it is done:
(§2) Both cell lines have activated FLT3 receptors, each of which carry additional resistance mutations in the kinase domain (D835Y and F691L, respectively).
(§3) MOLM14 D835Y and MOLM14 F691L cells were grown in RPMI-1640 media supplemented with 20% fetal bovine serum (FBS). For viability/cytotoxicity assessments, cells were seeded into 1536-well white polystyrene tissue culture-treated Greiner plates using a Multidrop Combi dispenser (ThermoFisher), in final volume 5 μL of growth media per well, at a density of 1000 cells per well. After cell addition, 23 nL of test compound were transferred into individual wells (22 doses tested for each test compound, with a 1:2 dilution series starting at 10 μM) via a 1536 pin-tool. Bortezomib (final concentration 2.3 μM) was used as a positive control for cell cytotoxicity. Plates were incubated for 48 hours at standard incubator conditions covered by a stainless steel gasketed lid to prevent evaporation. 48 hours post compound addition, 3 μL of Cell Titer Glo (Promega) were added to each well and plates were incubated at room temperature for 15 minutes with the stainless-steel lid in place. Luminescence readings were taken using a Viewlux imager (PerkinElmer) with a 2 second exposure time per plate.

The test system of a further test is MOLM14 F691L cells. The test can be described thus: MOLM14 F691L cell viability assay (Cell Titer Glo). The class given is cell-based. How it is done: as §2, §3
(Cellular ATP, detected with luciferase, serves as a proxy for viable cell number.)

Another test has as its target T3, IRAK4 (Homo sapiens, UniProt Q9NWZ3).
T3 sequence (Q9NWZ3 1-460): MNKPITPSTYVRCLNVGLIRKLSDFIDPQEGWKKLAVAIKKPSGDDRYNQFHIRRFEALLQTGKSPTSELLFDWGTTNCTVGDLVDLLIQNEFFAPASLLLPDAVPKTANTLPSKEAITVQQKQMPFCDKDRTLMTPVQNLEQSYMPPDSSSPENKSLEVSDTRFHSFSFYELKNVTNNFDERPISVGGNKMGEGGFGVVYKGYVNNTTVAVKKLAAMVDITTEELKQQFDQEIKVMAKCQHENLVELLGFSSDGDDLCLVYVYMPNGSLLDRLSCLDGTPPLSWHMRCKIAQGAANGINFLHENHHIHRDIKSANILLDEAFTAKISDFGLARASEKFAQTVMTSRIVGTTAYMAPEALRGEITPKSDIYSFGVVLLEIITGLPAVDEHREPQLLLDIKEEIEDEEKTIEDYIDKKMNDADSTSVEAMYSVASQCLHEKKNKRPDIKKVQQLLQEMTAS
The test can be described thus: RBC HotSpot Kinase Assay, IRAK4. The class given is biochemical. Also noted: purchased Reaction Biology (RBC HotSpot Kinase Assay). In short, it runs like this:
as §1

The test system of the next test is THP-1-Blue NF-κB cells. The experiment in a line: NF-kB SEAP reporter assay in THP-1-Blue NF-κB cells. The test is classed as cell-based. Conditions: 24 hours. The procedure: THP-1-Blue NF-κB cells (InvivoGen) carrying a stable integrated NF-κB-inducible secreted embryonic alkaline phosphatase (SEAP) reporter construct were plated at a concentration of 1×10^5 cells per well. The cells were stimulated with Pam3CSK4 (1 ng/mL) or hIL1B (1 ng/mL). After 10-20 minutes, the cells were then treated with vehicle (DMSO) or serial dilutions of the test compounds (10 doses tested for each test compound, with a 1:10 dilution series starting at 1 μM or 3 μM) with a final volume of 200 μL for 24 hours at 37° C. After 24 hours, the cells were centrifuged and 20 μL supernatant was incubated with 180 μL QUANTI-Blue reagent at 37° C. for 30-60 minutes. The levels of NF-κB-induced gene expression were measured in a microplate reader at 620 nm.

Where [1] appears, read: stimulated with Pam3CSK4 (1 ng/mL), read-out: NF-κB Pam3SCK4 IC50.
The mark [2] stands for this setting: stimulated with hIL1B (1 ng/mL), read-out: NF-κB IL1B IC50.

Where two headings read alike, the source gives them in different places.

As usually defined, the IC50 is the concentration that gives 50% inhibition.

T1 sequence (P51617 whole entry): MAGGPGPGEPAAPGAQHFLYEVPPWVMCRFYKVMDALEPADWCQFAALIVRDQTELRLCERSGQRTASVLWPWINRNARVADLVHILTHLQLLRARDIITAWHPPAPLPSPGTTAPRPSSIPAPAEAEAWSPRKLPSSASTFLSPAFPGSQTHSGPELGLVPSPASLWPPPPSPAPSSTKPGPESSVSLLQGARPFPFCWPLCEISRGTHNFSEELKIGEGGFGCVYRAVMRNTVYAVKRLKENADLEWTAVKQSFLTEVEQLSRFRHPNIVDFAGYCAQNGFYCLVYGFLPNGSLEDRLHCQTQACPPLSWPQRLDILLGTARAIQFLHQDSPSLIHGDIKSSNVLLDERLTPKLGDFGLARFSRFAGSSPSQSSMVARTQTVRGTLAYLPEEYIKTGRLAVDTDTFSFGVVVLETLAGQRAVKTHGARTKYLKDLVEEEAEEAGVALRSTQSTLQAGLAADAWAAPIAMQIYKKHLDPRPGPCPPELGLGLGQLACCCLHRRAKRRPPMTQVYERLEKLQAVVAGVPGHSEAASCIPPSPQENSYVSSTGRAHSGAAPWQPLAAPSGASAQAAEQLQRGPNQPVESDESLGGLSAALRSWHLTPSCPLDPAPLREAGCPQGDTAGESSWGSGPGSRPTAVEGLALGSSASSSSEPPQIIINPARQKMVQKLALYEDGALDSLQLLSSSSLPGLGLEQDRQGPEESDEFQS

As to `COc1cc2ncc(-c3cc(F)cc(N[C@H]4CNCC[C@@H]4F)n3)n2nc1C1CC1` [Compound 105, 6-(6-cyclopropyl-7-methoxyimidazo[1,2-b]pyridazin-3-yl)-4-fluoro-N-((3S,4S)-4-fluoropiperidin-3-yl)pyridin-2-amine], the concentration for half-maximal inhibition (IC50) against IRAK1 was 272 nM; against FLT3, less than 0.5 nM; with MOLM14 D835Y cells (Homo sapiens, MOLM-14, 48 h) it was 231 nM; with MOLM14 F691L cells (Homo sapiens, MOLM-14, 48 h), 1220 nM; at IRAK4, 7 nM.

Take `COc1cc2ncc(-c3cccc(N[C@@H]4CCCNC4)n3)n2nc1C(C)(O)C(F)(F)F` (single isomer, unassigned) [Compound 131]: the IC50 on IRAK1 is 8200 nM; against FLT3, less than 0.5 nM; in the test with MOLM14 D835Y cells (48 hours), 69 nM; in the test on MOLM14 F691L cells (48 hours) it was 545 nM; against IRAK4 it was 424 nM.

Consider `COc1cc2ncc(-c3cc(F)cc(N[C@@H]4CCCNC4)n3)n2nc1C1CC1` [Compound 104, (R)-6-(6-cyclopropyl-7-methoxyimidazo[1,2-b]pyridazin-3-yl)-4-fluoro-N-(piperidin-3-yl)pyridin-2-amine], for which the IC50 against IRAK1 was 1340 nM; on FLT3, less than 0.5 nM; with MOLM14 D835Y cells (Homo sapiens, MOLM-14, 48 h), 193 nM; in the test on MOLM14 F691L cells (Homo sapiens, MOLM-14, 48 h), 1150 nM; on IRAK4 it was 45 nM.

As for `COc1cc2ncc(-c3cccc(N[C@H]4CNC[C@@H]4F)n3)n2nc1C(C)(O)C(F)(F)F` (single isomer, unassigned; slow-eluting) [Compound 135], the IC50 was more than 10000 nM at IRAK1; less than 0.5 nM against FLT3; 386 nM in the test on MOLM14 D835Y cells (48 hours); 4330 nM with MOLM14 F691L cells (48 hours); 169 nM on IRAK4.

Regarding `COc1cc2ncc(-c3cccc(N[C@@H]4CCCNC4)n3)n2nc1C(F)F` [Compound 117, (R)-6-(6-(difluoromethyl)-7-methoxyimidazo[1,2-b]pyridazin-3-yl)-N-(piperidin-3-yl)pyridin-2-amine], the IC50 on IRAK1 is 383 nM; against FLT3, less than 0.5 nM; in the test with MOLM14 D835Y cells (Homo sapiens, MOLM-14, 48 h), 109 nM; with MOLM14 F691L cells (Homo sapiens, MOLM-14, 48 h), 1370 nM; at IRAK4, 4 nM.

Turning to `COc1cc2ncc(-c3cccc(N[C@@H]4CCCNC4)n3)n2nc1C(C)(O)C(F)(F)F` (single isomer, unassigned) [Compound 132], the IC50 against IRAK1 is more than 10000 nM; against FLT3, 5 nM; in the test on MOLM14 D835Y cells (48 hours), 486 nM; in the test on MOLM14 F691L cells (48 hours), 3440 nM; at IRAK4 it was 1770 nM.

On to `COc1cc2ncc(-c3cccc(N[C@H]4CNC[C@@H]4F)n3)n2nc1C(F)F` [Compound 116, 6-(6-(difluoromethyl)-7-methoxyimidazo[1,2-b]pyridazin-3-yl)-N-((3S,4S)-4-fluoropyrrolidin-3-yl)pyridin-2-amine], for which the IC50 was 25 nM at IRAK1; less than 0.5 nM at FLT3; 20 nM in the test with THP-1-Blue NF-κB cells (setting [1]); 46 nM in the test on THP-1-Blue NF-κB cells (setting [2]); 77 nM with MOLM14 D835Y cells (Homo sapiens, MOLM-14, 48 h); 1090 nM in the test with MOLM14 F691L cells (Homo sapiens, MOLM-14, 48 h). At IRAK4, the IC50 was less than 0.5 nM.

Turning to `COc1cc2ncc(-c3cc(F)cc(N[C@H]4CNC[C@@H]4F)n3)n2nc1C1CC1` [Compound 103, 6-(6-cyclopropyl-7-methoxyimidazo[1,2-b]pyridazin-3-yl)-4-fluoro-N-((3S,4S)-4-fluoropyrrolidin-3-yl)pyridin-2-amine], the IC50 was 218 nM at IRAK1; less than 0.5 nM at FLT3; 205 nM with MOLM14 D835Y cells (Homo sapiens, MOLM-14, 48 h); 1450 nM with MOLM14 F691L cells (Homo sapiens, MOLM-14, 48 h); 16 nM against IRAK4.

As for `COc1cc2ncc(-c3cccc(N[C@H]4CNCC[C@@H]4F)n3)n2nc1C(F)F` [Compound 118, 6-(6-(difluoromethyl)-7-methoxyimidazo[1,2-b]pyridazin-3-yl)-N-((3S,4S)-4-fluoropiperidin-3-yl)pyridin-2-amine], the IC50 was 70 nM against IRAK1; less than 0.5 nM against FLT3; 76 nM with THP-1-Blue NF-κB cells (setting [1]); 216 nM in the test with THP-1-Blue NF-κB cells (setting [2]); 61 nM in the test on MOLM14 D835Y cells (Homo sapiens, MOLM-14, 48 h); 770 nM in the test with MOLM14 F691L cells (Homo sapiens, MOLM-14, 48 h). In addition, it took 2 nM to reach half-maximal inhibition against IRAK4 (IC50).

`Cn1cc(-c2ccc3ncc(-c4cccc(N[C@H]5CNC[C@@H]5F)n4)n3n2)cn1` [Compound 1, N-((3S,4S)-4-fluoropyrrolidin-3-yl)-6-(6-(1-methyl-1H-pyrazol-4-yl)imidazo[1,2-b]pyridazin-3-yl)pyridin-2-amine]: the IC50 at IRAK1 stood at 331 nM; against FLT3 it was 0.6 nM; in the test on MOLM14 D835Y cells (Homo sapiens, MOLM-14, 48 h), 60 nM; with MOLM14 F691L cells (Homo sapiens, MOLM-14, 48 h), 1680 nM; on IRAK4, 13 nM.
